Reference: paper PMC12175168, “Refining the Amino Reactivity-Based Identification of Respiratory Sensitizers” (Chemical Research in Toxicology, 2025)
Where “and” joins values, the source holds several entries; their conditions need not be identical. Identical values can stand only once. Entries after “also recorded” stand apart in the source; their conditions may differ.

Key:
[1] = DPRA-like chemoassay with Gly-pNA (24 h percent depletion); conditions: PPB pH 7.4, 24 h, 25 °C, 50-fold excess of test compound
Protocol: (§1) In addition to the kinetic Gly-pNA chemoassay, the reactivity of the 27 compounds toward Gly-pNA and Lys-pNA was determined in terms of percentage depletions after reacting for 24 h at 25 °C employing the following DPRA-like setup: stock solutions for the test compounds were prepared by gravimetrically adding at least 3 mg of the respective compound into a glass vial (total volume 1.8 mL) and subsequent addition of 1 mL ACN. […] The stock solutions for Gly-pNA and Lys-pNA with a final concentration of 1.7 mM were prepared by dissolving the required amount in one of the three aqueous buffer solutions used for this DPRA-like chemoassay: phosphate buffer (80 mM, pH 7.4), phosphate buffer (80 mM, pH 10.2), and ammonium acetate buffer (100 mM, pH 10.2). Glass vials (1.8 mL) were used as reaction vessels.
(§2) In the final reaction mixtures, the concentration of Gly-pNA or Lys-pNA was 0.03 mM, and the test compound was 50 times in excess (1.5 mM). After incubation for 24 h at 25 °C, the free amount of either Gly-pNA or Lys-pNA was determined using the HPLC UV–vis method described for the kinetic Gly-pNA chemoassay. , The percentage depletion of Gly-pNA (D Gly) or Lys-pNA (D Lys) was determined directly from peak areas according to eq 3 Dx[%]=(Axcontrol−Ax/Axcontrol×100)withx=GlyorLys
(§3) In eq , A x and A x ^control are the peak areas of the chromatographic signal of either Gly-pNA (x = Gly) or Lys-pNA (x = Lys) at 315 nm after 24 h incubation with and without test compound, respectively.
(§4) Summary of experimental conditions of the DPRA-like setups used to determine
(§5) DGly, D Lys, and D DPRA data in Table 2 (main text).
(§6) Table S2. Overview of experimental conditions for the DPRA-like setups used to
(§7) determine 24 h percentage depletion rates for the reaction of the test compounds with
(§8) Gly-pNA, Lys-pNA, and the DPRA lysine peptide (literature data).

[2] = DPRA-like chemoassay with Lys-pNA (24 h percent depletion); conditions: 25 °C, 50-fold excess of test compound
Protocol: as §1, §2, §3, §4, §5, §6, §7, §8

[3] = Stability assessment of test compounds in aqueous buffers (half-lives)
Protocol: To this end, the test compound was dissolved in 1 mL ACN in a glass vial. […] As reaction batches, 1.8 mL glass vials equipped with 400 μL glass inserts were used and filled with 220 μL of the respective aqueous buffer and 80 μL of the test compound stock solution. The depletion of the test compounds was recorded with the HPLC UV–vis instrument used for the kinetic Gly-pNA chemoassay. , Chromatographic separation of the reaction mixture was achieved using the gradient described for the Gly-pNA chemoassay previously , and an isocratic HPLC method (water/ACN 70:30, both with 0.1 vol % formic acid). The wavelengths used for the detection of the compound and the information on the used chromatographic method are given in the Supporting Information in Table S3.

DPRA lysine peptide = test system: DPRA lysine peptide; parameters: method as in literature; conditions: AAB pH 10.2, 24 h; ref literature; cited from earlier work
[4] = Kinetic Gly-pNA chemoassay (second-order rate constant k Gly);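 note: Gly-pNA depletion followed over time by chromatographic peak area, with test compound in at least tenfold excess (pseudo-first-order), added from acetonitrile stock, at least three runs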
Protocol: The reactivity of the 27 test compounds toward Gly-pNA was quantified in terms of the second-order reaction rate constant k Gly using our Gly-pNA chemoassay. , In brief, stock solutions of the test compound were freshly obtained every day by gravimetrically adding the required amount into a 10 mL volumetric flask, which was subsequently filled to volume with acetonitrile (ACN). The required amounts of test compounds depended on their reactivity toward Gly-pNA. […] As usual for kinetic studies, fast reacting chemicals are applied at lower concentrations than little reactive candidates. All stock solutions were stored at 25 °C in a climate chamber before first use (ca. 30 min) and for repeating an experiment (max. 6 h). Gly-pNA stock solution (1.69 mM) was obtained by dissolving 3.3 mg Gly-pNA in 10 mL phosphate buffer solution (80 mM) and could be used for several weeks if stored at 4 °C. For all chemoassay experiments, 1.8 mL glass vials were used as reaction batches, which were initially filled with 1070 μL phosphate buffer (80 mM) and 30 μL Gly-pNA stock solution. To start the reaction, 400 μL of the test compound stock solutions was added. […] The time between the start of the reaction and the first analysis was measured with an electronic time clock. All reactions were performed under pseudo-1st order conditions with the electrophile being at least ten times in excess over Gly-pNA.
For these compounds, the minimum reactivity was estimated in terms of k Gly by plotting ln (A Gly ^ t /A Gly ^0) vs reaction time t (with A Gly ^ t and A Gly ^0 being the peak areas under the chromatographic signal for Gly-pNA at time t and at the beginning of the reaction (t = 0)). Linear regression through 0 (at t = 0) and the first measurement point yields slope s (see Figure S1) which is the pseudo-1st order rate constant k Gly ^pseudo that can be converted with the initial test compound concentration in the reactions mixture (c) into k Gly according to eq . 1 kGly=kGlypseudo/c
2 Ln(AGlyt/AGly0)≈−kGly·c·t+0.5·kGly·kloss·c·t^2 Here k loss is the first order rate constant covering all processes contributing to the loss of the test compounds, except the reaction with Gly-pNA. The regression parameter of the linear part of eq (= k Gly·c) is the pseudo-1st order rate constant k Gly ^pseudo and can be converted into k Gly according to eq (see above).
Linear regression of these plots provides slope s, which is again the pseudo-1st order rate constant, k Gly ^pseudo, and can be used to calculate k Gly according to eq . All experiments to determine k Gly have been conducted at least three times.

[5] = ref Krutz et al., Sadekar et al., Ponder et al., Karol et al., Hopkins et al.; cited from earlier work
[6] = AAB (ammonium acetate buffer) pH 10.2, 24 h
[7] = PPB (phosphate buffer 80 mM) pH 7.4
[8] = PPB (phosphate buffer 80 mM) pH 10.2
[9] = reaction with Gly-pNA, phosphate buffer 80 mM, 25 °C, nominal test compound concentration, ≥ values are minimum reactivity
[10] = reaction with Gly-pNA, phosphate buffer, nominal test compound concentration
[11] = buffer, pH 7.4, half-lives t 1/2 ± s(t 1/2), PPB (phosphate buffer 80 mM) pH 7.4
[12] = buffer, pH 10.2, half-lives t 1/2 ± s(t 1/2), AAP (ammonium acetate buffer 100 mM) pH 10.2
[13] = buffer, pH 10.2, half-lives t 1/2 ± s(t 1/2), PPB (phosphate buffer 80 mM) pH 10.2
[14] = determined using the free (not bound by water) fraction of F1

Cc1ccc(S(=O)(=O)NCl)cc1 [G2, chloramine T]
D Gly ± s(D Gly), 24 h percent depletion of Gly-pNA [1]: 100% | D Lys ± s(D Lys), 24 h percent depletion of Lys-pNA [2, 6]: 23.9 ± 1.6% | D Lys ± s(D Lys), 24 h percent depletion of Lys-pNA ([2]; PPB pH 10.2, 24 h): 53.8 ± 2.9% | half-lives t 1/2 ± s(t 1/2) [3, 7]: no depletion | half-lives t 1/2 ± s(t 1/2) [3, 8]: no depletion | half-life ([3]; aqueous ammonium acetate buffer with acetonitrile, pH 10.2): 58.5 ± 1.3 min | D DPRA ± s(D DPRA), depletion of the DPRA lysine peptide (DPRA lysine peptide): 80.8 ± 30.7% | k Gly ± s(k Gly), second-order rate constant [4, 9]: 41.9 ± 0.2 L mol^–1 min^–1 | log k Gly [4, 10]: 1.62

O=[N+]([O-])c1ccc(S(=O)(=O)Cl)c([N+](=O)[O-])c1 [E1, 2,4-dinitrobenzenesulfonyl chloride]
D Gly ± s(D Gly), 24 h percent depletion of Gly-pNA [1]: 56.1% and 56.1 ± 0.5% | D Lys ± s(D Lys), 24 h percent depletion of Lys-pNA [2, 6]: 13.4% and 13.4 ± 0.8% | D Lys ± s(D Lys), 24 h percent depletion of Lys-pNA ([2]; PPB pH 10.2, 24 h): 62.6% and 62.6 ± 4.2% | half-life [3, 11]: < 1 min | half-life [3, 12]: < 1 min | half-life [3, 13]: < 1 min

O=[N+]([O-])c1ccc(F)c([N+](=O)[O-])c1 [E3, 1-fluoro-2,4-dinitrobenzene]
D Gly ± s(D Gly), 24 h percent depletion of Gly-pNA [1]: 72.7% and 72.7 ± 0.7% | D Lys ± s(D Lys), 24 h percent depletion of Lys-pNA [2, 6]: 84.0 ± 3.3% | D Lys ± s(D Lys), 24 h percent depletion of Lys-pNA ([2]; PPB pH 10.2, 24 h): 100% | half-lives t 1/2 ± s(t 1/2) [3, 7]: no depletion | half-life [3, 12]: 73.2 ± 9.7 min | half-life [3, 13]: 615 ± 31 min | Classification as potential respiratory sensitizer or non-sensitizer [5]: non-sensitizer | k Gly ± s(k Gly), second-order rate constant [4, 9]: 3.95 ± 0.07 L mol^–1 min^–1 | log k Gly [4, 10]: 0.6

C=C(C#N)C(=O)OCC [F1, ethyl 2-cyanoacrylate]
D Gly ± s(D Gly), 24 h percent depletion of Gly-pNA [1]: 98.3 ± 0.1% | D Lys ± s(D Lys), 24 h percent depletion of Lys-pNA [2, 6]: 1.6 ± 0.2% | D Lys ± s(D Lys), 24 h percent depletion of Lys-pNA ([2]; PPB pH 10.2, 24 h): 40.2% and 40.2 ± 1.9% | k Gly ± s(k Gly), second-order rate constant [4, 14]: 10886 L mol^–1 min^–1 and 10886 ± 1589 ^c L mol^–1 min^–1 | log k Gly [4, 14]: 4.02 and 4.04 | free (reactive) fraction, not bound to water ([4]; in the Gly-pNA chemoassay setup): < 0.1% | k Gly ± s(k Gly), second-order rate constant [4, 9]: 2.22 ± 0.33 L mol^–1 min^–1 | log k Gly [4, 10]: 0.35

Clc1nc(Cl)nc(Cl)n1 [E2, 2,4,6-trichloro-1,3,5-triazine]
D Gly ± s(D Gly), 24 h percent depletion of Gly-pNA [1]: 100% | D Lys ± s(D Lys), 24 h percent depletion of Lys-pNA [2, 6]: 91.1 ± 1.1% | D Lys ± s(D Lys), 24 h percent depletion of Lys-pNA ([2]; PPB pH 10.2, 24 h): 100% | half-life [3, 11]: 1.14 ± 0.05 min | half-life [3, 12]: < 1 min | half-life [3, 13]: < 1 min | D DPRA ± s(D DPRA), depletion of the DPRA lysine peptide (DPRA lysine peptide): 99.7 ± 0.6% | k Gly ± s(k Gly), second-order rate constant [4, 9]: ≥1424 ± 364 L mol^–1 min^–1

O=[N+]([O-])c1ccc(Cl)c([N+](=O)[O-])c1 [E4, 1-chloro-2,4-dinitrobenzene]
D Lys ± s(D Lys), 24 h percent depletion of Lys-pNA [2, 6]: 5.0 ± 0.7% | D Lys ± s(D Lys), 24 h percent depletion of Lys-pNA ([2]; PPB pH 10.2, 24 h): 8.1 ± 0.5% | half-lives t 1/2 ± s(t 1/2) ([3]; AAP (ammonium acetate buffer 100 mM) pH 10.2): did not show any significant signal depletion; also recorded: no depletion | half-lives t 1/2 ± s(t 1/2) [3, 7]: no depletion | half-lives t 1/2 ± s(t 1/2) [3, 8]: no depletion | D DPRA ± s(D DPRA), depletion of the DPRA lysine peptide (DPRA lysine peptide): 21.1 ± 16.3% | Classification as potential respiratory sensitizer or non-sensitizer [5]: non-sensitizer | log k Gly [4, 10]: –2.20

O=C=NCCCCCCN=C=O [B1, hexamethylene diisocyanate]
D Gly ± s(D Gly), 24 h percent depletion of Gly-pNA [1]: 100% | D Lys ± s(D Lys), 24 h percent depletion of Lys-pNA [2, 6]: 23.3 ± 0.3% | D Lys ± s(D Lys), 24 h percent depletion of Lys-pNA ([2]; PPB pH 10.2, 24 h): 98.7 ± 2.2% | D DPRA ± s(D DPRA), depletion of the DPRA lysine peptide (DPRA lysine peptide): 41.6 ± 7.3% | Classification as potential respiratory sensitizer or non-sensitizer [5]: potential respiratory sensitizer | k Gly ± s(k Gly), second-order rate constant [4, 9]: 451 ± 33 L mol^–1 min^–1 | log k Gly [4, 10]: 2.65

CC1(C)CC(N=C=O)CC(C)(CN=C=O)C1 (centres unmarked) [B2, isophorone diisocyanate]
D Gly ± s(D Gly), 24 h percent depletion of Gly-pNA [1]: 100% | D Lys ± s(D Lys), 24 h percent depletion of Lys-pNA [2, 6]: 21.5 ± 0.3% | D Lys ± s(D Lys), 24 h percent depletion of Lys-pNA ([2]; PPB pH 10.2, 24 h): 100% | D DPRA ± s(D DPRA), depletion of the DPRA lysine peptide (DPRA lysine peptide): 28.0% | Classification as potential respiratory sensitizer or non-sensitizer [5]: potential respiratory sensitizer | k Gly ± s(k Gly), second-order rate constant [4, 9]: 256 ± 6 L mol^–1 min^–1 | log k Gly [4, 10]: 2.41
